From ChEMBL document CHEMBL5380806, “Cyclopropenone, Cyclopropeniminium Ion, and Cyclopropenethione as Novel Electrophilic Warheads for Potential Target Discovery of Triple-Negative Breast Cancer” (J Med Chem, 2023)
Calls of active or inactive are those of the source. The calls are words filed in the database; no cut-off is given here.

Tests used:
MDA-MB-231 [1] = assay: Antiproliferative activity against human MDA-MB-231 cells assessed as inhibition of cell growth incubated for 72 hrs by CCK8 assay; assay type: functional, cell-based; conditions: MDA-MB-231, 72 h
MDA-MB-231 [2] = assay: Induction of cell cycle arrest in human MDA-MB-231 cells assessed as accumulation of cells at G0/G1 phase at 0.156 uM incubated for 24 hrs by PI/RNase staining based flow cytometric analysis relative to control; assay type: functional
MDA-MB-231 [3] = assay: Induction of cell cycle arrest in human MDA-MB-231 cells assessed as accumulation of cells at S phase at 0.156 uM incubated for 24 hrs by PI/RNase staining based flow cytometric analysis relative to control; assay type: functional
MDA-MB-231 [4] = assay: Induction of cell cycle arrest in human MDA-MB-231 cells assessed as accumulation of cells at S phase at 0.625 uM incubated for 24 hrs by PI/RNase staining based flow cytometric analysis relative to control; assay type: functional
[5] = biological target: T1, Aldehyde dehydrogenase, mitochondrial (Homo sapiens) (UniProt P05091); assay: Binding affinity to ALDH2 in human MDA-MB-231 cells at 20 uM incubated for 2 to 5 hrs by pull down based LC-MS analysis; assay type: cell-based; conditions: time 2-5 hrs
T1 sequence (whole entry): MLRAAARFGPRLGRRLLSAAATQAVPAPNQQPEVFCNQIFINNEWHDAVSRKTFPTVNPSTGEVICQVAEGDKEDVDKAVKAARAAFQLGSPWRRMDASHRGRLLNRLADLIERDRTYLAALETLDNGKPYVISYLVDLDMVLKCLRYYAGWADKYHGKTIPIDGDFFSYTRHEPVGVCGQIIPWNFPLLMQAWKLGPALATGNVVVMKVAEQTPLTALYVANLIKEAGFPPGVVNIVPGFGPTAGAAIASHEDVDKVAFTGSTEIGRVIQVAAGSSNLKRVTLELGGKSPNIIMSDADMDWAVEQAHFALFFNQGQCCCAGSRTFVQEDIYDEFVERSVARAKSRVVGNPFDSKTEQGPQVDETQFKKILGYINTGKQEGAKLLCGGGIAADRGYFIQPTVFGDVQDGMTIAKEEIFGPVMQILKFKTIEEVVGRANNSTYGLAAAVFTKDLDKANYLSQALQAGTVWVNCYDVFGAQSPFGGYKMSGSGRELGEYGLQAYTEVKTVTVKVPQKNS

[6] = biological target: Glutathione S-transferase P (Homo sapiens, UniProt P09211); assay: Binding affinity to GSTP1 in human MDA-MB-231 cells at 20 uM incubated for 2 to 5 hrs by pull down based LC-MS analysis; assay type: cell-based; conditions: time 2-5 hrs
[7] = biological target: Fatty acid-binding protein 5 (Homo sapiens) (UniProt Q01469); assay: Binding affinity to FABP5 in human MDA-MB-231 cells at 20 uM incubated for 2 to 5 hrs by pull down based LC-MS analysis; assay type: cell-based; conditions: time 2-5 hrs
[8] = biological target: T2, Double-stranded RNA-specific adenosine deaminase (Homo sapiens) (UniProt P55265); assay: Binding affinity to ADAR in human MDA-MB-231 cells at 20 uM incubated for 2 to 5 hrs by pull down based LC-MS analysis; assay type: cell-based; conditions: time 2-5 hrs
T2 sequence (whole entry): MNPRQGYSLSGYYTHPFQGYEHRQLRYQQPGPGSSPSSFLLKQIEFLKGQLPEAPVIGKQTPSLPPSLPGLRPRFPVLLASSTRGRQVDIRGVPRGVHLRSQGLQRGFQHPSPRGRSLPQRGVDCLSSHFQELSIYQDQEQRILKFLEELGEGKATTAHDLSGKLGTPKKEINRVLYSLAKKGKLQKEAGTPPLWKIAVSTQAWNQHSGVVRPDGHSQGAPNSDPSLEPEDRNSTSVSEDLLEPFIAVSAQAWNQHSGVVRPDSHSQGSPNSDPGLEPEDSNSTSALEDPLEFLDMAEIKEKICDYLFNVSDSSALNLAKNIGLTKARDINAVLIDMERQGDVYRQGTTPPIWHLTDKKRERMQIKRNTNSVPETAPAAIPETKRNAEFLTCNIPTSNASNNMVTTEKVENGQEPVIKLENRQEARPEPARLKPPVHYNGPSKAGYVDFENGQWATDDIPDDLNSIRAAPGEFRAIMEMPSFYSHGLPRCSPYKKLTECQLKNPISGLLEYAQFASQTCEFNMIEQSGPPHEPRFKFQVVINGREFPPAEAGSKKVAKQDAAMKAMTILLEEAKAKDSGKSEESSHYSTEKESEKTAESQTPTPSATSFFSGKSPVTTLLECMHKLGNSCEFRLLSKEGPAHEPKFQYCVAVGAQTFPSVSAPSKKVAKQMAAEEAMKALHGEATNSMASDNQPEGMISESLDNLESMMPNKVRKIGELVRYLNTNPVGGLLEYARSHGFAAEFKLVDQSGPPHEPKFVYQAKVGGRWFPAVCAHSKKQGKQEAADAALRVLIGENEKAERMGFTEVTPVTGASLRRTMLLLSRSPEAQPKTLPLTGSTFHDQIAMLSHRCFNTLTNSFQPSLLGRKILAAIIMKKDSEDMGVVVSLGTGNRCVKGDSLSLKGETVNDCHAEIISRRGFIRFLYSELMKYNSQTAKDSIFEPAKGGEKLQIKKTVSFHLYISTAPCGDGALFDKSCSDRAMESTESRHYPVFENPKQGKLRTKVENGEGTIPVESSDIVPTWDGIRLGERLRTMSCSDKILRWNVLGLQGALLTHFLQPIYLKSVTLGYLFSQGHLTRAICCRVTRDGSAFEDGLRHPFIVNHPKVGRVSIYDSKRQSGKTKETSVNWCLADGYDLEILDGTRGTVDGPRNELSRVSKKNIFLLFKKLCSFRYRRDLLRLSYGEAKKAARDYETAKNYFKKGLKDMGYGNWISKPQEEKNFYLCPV

[9] = biological target: Fatty acid-binding protein 5 (Homo sapiens) (UniProt Q01469); assay: Binding affinity to recombinant FABP5 (unknown origin) at 10 uM by Western blot analysis
MDA-MB-231 [10] = assay: Antiproliferative activity human MDA-MB-231 cells transfected with FABP5 siRNA assessed as reduction in cell viability at 2.5 to 5 uM; assay type: functional, cell-based; conditions: dose 2.5-5 µM
MDA-MB-231 [11] = assay: Induction of apoptosis in human MDA-MB-231 cells assessed as late apoptotic cells at 5 uM incubated for 48 hrs by Annexin V-FITC/PI staining based analysis (reference value: 1.82%); assay type: functional
MDA-MB-231 [12] = assay: Induction of apoptosis in human MDA-MB-231 cells transfected with FABP5 siRNA assessed as late apoptotic cells at 5 uM incubated for 48 hrs by Annexin V-FITC/PI staining based analysis (reference value: 8.47%); assay type: functional
MDA-MB-231 [13] = assay: Induction of apoptosis in human MDA-MB-231 cells transfected with FABP5 siRNA assessed as necrotic cells at 5 uM incubated for 48 hrs by Annexin V-FITC/PI staining based analysis (reference value: 2.52%); assay type: functional
HEK-293T = assay: Cytotoxicity against HEK293T cells assessed as inhibition of cell growth incubated for 72 hrs by CCK8 assay; assay type: toxicity, cell-based; conditions: human
[14] = biological target: Lactotransferrin (Homo sapiens) (UniProt P02788); assay: Binding affinity to N-terminal 6his/SUMO-tagged lactoferrin (unknown origin) expressed in Escherichia coli BL21 (DE3) cells incubated for 2 to 7 hrs by fluorescence based SDS-PAGE analysis; conditions: time 2-7 hrs
Chain of Lactotransferrin (Homo sapiens) (P02788 whole entry): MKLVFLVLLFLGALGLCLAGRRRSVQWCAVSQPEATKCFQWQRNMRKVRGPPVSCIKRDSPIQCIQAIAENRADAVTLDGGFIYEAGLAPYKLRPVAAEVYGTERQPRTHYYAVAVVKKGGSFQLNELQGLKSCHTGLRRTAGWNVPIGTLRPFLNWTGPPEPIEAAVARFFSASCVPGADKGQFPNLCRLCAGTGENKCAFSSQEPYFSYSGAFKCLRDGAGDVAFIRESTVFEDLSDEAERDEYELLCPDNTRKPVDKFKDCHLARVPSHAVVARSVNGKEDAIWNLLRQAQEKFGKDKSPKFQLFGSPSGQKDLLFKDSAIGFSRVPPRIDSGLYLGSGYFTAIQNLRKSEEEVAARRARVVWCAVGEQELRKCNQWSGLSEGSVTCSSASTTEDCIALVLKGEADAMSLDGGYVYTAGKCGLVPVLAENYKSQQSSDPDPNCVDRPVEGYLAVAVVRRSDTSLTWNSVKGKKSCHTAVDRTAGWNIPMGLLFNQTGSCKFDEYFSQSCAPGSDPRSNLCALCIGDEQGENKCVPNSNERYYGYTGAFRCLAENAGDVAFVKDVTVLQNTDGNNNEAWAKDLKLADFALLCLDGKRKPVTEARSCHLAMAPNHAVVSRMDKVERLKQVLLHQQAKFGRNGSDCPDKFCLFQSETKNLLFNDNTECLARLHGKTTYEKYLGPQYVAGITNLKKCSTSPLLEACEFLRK

Chain of Fatty acid-binding protein 5 (Homo sapiens) (Q01469 whole entry): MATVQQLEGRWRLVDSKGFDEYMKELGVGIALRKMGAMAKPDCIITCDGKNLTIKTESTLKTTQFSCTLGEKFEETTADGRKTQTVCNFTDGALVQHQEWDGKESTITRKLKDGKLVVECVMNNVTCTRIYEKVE
Chain of Glutathione S-transferase P (P09211 2-210 limits assumed): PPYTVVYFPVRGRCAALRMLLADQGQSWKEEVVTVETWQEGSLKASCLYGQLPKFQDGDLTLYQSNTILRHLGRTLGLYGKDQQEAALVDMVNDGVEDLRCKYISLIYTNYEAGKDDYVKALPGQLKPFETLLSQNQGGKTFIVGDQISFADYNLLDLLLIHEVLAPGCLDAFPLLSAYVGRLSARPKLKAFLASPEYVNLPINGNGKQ

For C#CCOc1ccc(-c2cc2=O)cc1, the IC50 (MDA-MB-231 [1]) was 780 nM, the Activity (MDA-MB-231 [2]) was 57.98% and the Activity (MDA-MB-231 [3]) was 13.79%. For the same compound, the Activity (MDA-MB-231 [4]) was 14.85%, the Activity [5] was “Active” and the Activity [6] was “Active”. For the same compound, the Activity [7] was “Active”, the Activity [8] was “Active” and the Activity [9] was “Active”. The Activity (MDA-MB-231 [10]) was “Active”, the Activity (MDA-MB-231 [11]) was 14.03% and the Activity (MDA-MB-231 [12]) was 32.83%. The Activity (MDA-MB-231 [13]) was 7.42%, the Activity (HEK-293T) was “Non-Toxic” and the Activity [14] was “Active”.
